One compound from ChEMBL document CHEMBL2074229, “Inhibition of drug transport by genistein in multidrug-resistant cells expressing P-glycoprotein” (Biochem Pharmacol, 1997) can be followed below.

The series has as its target ATP-dependent translocase ABCB1 (Homo sapiens, UniProt P08183). Briefly: TP_TRANSPORTER: inhibition of Rhodamine 123 efflux (R123: 10 uM, Genistein: 200 uM) in BALB/c-3T3-1000 cells (MDR1-transfected). In kind it is functional, cell-based. Particulars: mouse, balb/c-3t3-1000, 200 µM.

Sequence of ATP-dependent translocase ABCB1 (P08183 whole entry): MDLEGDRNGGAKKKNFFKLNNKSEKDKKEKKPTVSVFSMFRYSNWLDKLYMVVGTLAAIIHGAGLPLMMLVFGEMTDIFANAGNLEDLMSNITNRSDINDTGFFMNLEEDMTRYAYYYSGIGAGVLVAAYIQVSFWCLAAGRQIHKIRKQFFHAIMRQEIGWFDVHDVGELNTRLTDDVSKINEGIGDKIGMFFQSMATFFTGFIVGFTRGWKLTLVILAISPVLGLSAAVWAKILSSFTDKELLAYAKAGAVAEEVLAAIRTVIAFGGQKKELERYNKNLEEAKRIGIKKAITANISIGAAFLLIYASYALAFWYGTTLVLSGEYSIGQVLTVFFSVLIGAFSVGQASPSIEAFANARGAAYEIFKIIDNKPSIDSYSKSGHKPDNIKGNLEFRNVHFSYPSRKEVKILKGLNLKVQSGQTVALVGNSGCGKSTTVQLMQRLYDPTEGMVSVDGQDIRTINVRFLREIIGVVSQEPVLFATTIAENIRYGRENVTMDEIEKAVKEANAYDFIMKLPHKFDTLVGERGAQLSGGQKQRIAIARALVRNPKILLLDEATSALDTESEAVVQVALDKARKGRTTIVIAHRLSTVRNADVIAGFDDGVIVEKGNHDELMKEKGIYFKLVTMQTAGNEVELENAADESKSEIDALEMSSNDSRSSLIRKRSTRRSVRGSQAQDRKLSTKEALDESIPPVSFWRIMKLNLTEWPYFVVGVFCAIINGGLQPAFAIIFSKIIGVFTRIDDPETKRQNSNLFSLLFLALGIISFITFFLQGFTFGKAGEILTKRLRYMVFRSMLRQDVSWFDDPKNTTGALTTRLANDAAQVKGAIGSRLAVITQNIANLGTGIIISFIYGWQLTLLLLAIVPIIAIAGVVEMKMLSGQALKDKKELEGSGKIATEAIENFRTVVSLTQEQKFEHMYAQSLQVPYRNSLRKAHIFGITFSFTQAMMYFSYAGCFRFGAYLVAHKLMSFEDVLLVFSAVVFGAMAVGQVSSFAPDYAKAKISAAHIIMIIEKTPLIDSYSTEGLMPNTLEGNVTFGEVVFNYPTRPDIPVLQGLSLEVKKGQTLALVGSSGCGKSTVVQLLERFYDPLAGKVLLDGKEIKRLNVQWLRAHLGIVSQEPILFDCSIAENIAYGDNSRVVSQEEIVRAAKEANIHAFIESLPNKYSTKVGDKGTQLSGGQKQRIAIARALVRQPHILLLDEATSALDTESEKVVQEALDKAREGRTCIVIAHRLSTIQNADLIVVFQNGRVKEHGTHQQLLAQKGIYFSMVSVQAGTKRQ

`O=c1c(-c2ccc(O)cc2)coc2cc(O)cc(O)c12` [GENISTEIN]: the Inhibition result was “inhibitor [50-60 % inhibition]”.
